Test results published in the NIST ThermoML archive (doi:10.1021/je0342825).
Numbers after ± are expanded uncertainties.

Test: xn = mol fraction of the nth substance listed
Conditions: 101.3 kPa, Liquid

SMILES: CC(=O)O [acetic acid] + CCO
- mass density (293.15 K, x1 = 0.0493): 803.5 ± 0.44 kg/m3
- speed of sound (293.15 K, x1 = 0.0493): 1168 ± 1 m/s
- viscosity (293.15 K, x1 = 0.0493): 1.19 ± 0.015 mPa·s
- mass density (293.15 K, x1 = 0.1004): 817.3 ± 0.43 kg/m3
- speed of sound (293.15 K, x1 = 0.1004): 1173 ± 1 m/s
- viscosity (293.15 K, x1 = 0.1004): 1.195 ± 0.015 mPa·s
- mass density (293.15 K, x1 = 0.1992): 844.8 ± 0.4 kg/m3
- speed of sound (293.15 K, x1 = 0.1992): 1182 ± 1 m/s
- viscosity (293.15 K, x1 = 0.1992): 1.23 ± 0.016 mPa·s
- mass density (293.15 K, x1 = 0.2971): 871.59 ± 0.39 kg/m3
- speed of sound (293.15 K, x1 = 0.2971): 1190 ± 1 m/s
- viscosity (293.15 K, x1 = 0.2971): 1.276 ± 0.016 mPa·s
- mass density (293.15 K, x1 = 0.3962): 898.37 ± 0.38 kg/m3
- speed of sound (293.15 K, x1 = 0.3962): 1195 ± 1 m/s
- viscosity (293.15 K, x1 = 0.3962): 1.336 ± 0.017 mPa·s
- mass density (293.15 K, x1 = 0.4961): 924.97 ± 0.39 kg/m3
- speed of sound (293.15 K, x1 = 0.4961): 1197 ± 2 m/s
- viscosity (293.15 K, x1 = 0.4961): 1.383 ± 0.018 mPa·s
- mass density (293.15 K, x1 = 0.5981): 951.75 ± 0.4 kg/m3
- speed of sound (293.15 K, x1 = 0.5981): 1196 ± 2 m/s
- viscosity (293.15 K, x1 = 0.5981): 1.432 ± 0.018 mPa·s
- mass density (293.15 K, x1 = 0.7031): 978.85 ± 0.42 kg/m3
- speed of sound (293.15 K, x1 = 0.7031): 1192 ± 2 m/s
- viscosity (293.15 K, x1 = 0.7031): 1.444 ± 0.019 mPa·s
- mass density (293.15 K, x1 = 0.7973): 1002.17 ± 0.45 kg/m3
- speed of sound (293.15 K, x1 = 0.7973): 1184 ± 2 m/s
- viscosity (293.15 K, x1 = 0.7973): 1.419 ± 0.018 mPa·s
- mass density (293.15 K, x1 = 0.8979): 1026.4 ± 0.51 kg/m3
- speed of sound (293.15 K, x1 = 0.8979): 1171 ± 2 m/s
- viscosity (293.15 K, x1 = 0.8979): 1.338 ± 0.018 mPa·s
- mass density (293.15 K, x1 = 0.9515): 1038.72 ± 0.54 kg/m3
- speed of sound (293.15 K, x1 = 0.9515): 1161 ± 2 m/s
- viscosity (293.15 K, x1 = 0.9515): 1.275 ± 0.017 mPa·s
- mass density (293.15 K, x1 = 1): 1049.3 ± 0.57 kg/m3
- speed of sound (293.15 K, x1 = 1): 1149 ± 2 m/s
- viscosity (293.15 K, x1 = 1): 1.211 ± 0.016 mPa·s
- mass density (298.15 K, x1 = 0.0493): 799.15 ± 0.45 kg/m3
- speed of sound (298.15 K, x1 = 0.0493): 1151 ± 1 m/s
- viscosity (298.15 K, x1 = 0.0493): 1.083 ± 0.014 mPa·s
- mass density (298.15 K, x1 = 0.1004): 812.87 ± 0.43 kg/m3
- speed of sound (298.15 K, x1 = 0.1004): 1156 ± 1 m/s
- viscosity (298.15 K, x1 = 0.1004): 1.089 ± 0.014 mPa·s
- mass density (298.15 K, x1 = 0.1992): 840.2 ± 0.41 kg/m3
- speed of sound (298.15 K, x1 = 0.1992): 1165 ± 1 m/s
- viscosity (298.15 K, x1 = 0.1992): 1.12 ± 0.014 mPa·s
- mass density (298.15 K, x1 = 0.2971): 866.86 ± 0.39 kg/m3
- speed of sound (298.15 K, x1 = 0.2971): 1172 ± 1 m/s
- viscosity (298.15 K, x1 = 0.2971): 1.162 ± 0.015 mPa·s
- mass density (298.15 K, x1 = 0.3962): 893.5 ± 0.39 kg/m3
- speed of sound (298.15 K, x1 = 0.3962): 1177 ± 1 m/s
- viscosity (298.15 K, x1 = 0.3962): 1.215 ± 0.016 mPa·s
- mass density (298.15 K, x1 = 0.4961): 919.96 ± 0.4 kg/m3
- speed of sound (298.15 K, x1 = 0.4961): 1179 ± 2 m/s
- viscosity (298.15 K, x1 = 0.4961): 1.258 ± 0.016 mPa·s
- mass density (298.15 K, x1 = 0.5981): 946.59 ± 0.4 kg/m3
- speed of sound (298.15 K, x1 = 0.5981): 1178 ± 2 m/s
- viscosity (298.15 K, x1 = 0.5981): 1.297 ± 0.017 mPa·s
- mass density (298.15 K, x1 = 0.7031): 973.55 ± 0.42 kg/m3
- speed of sound (298.15 K, x1 = 0.7031): 1175 ± 2 m/s
- viscosity (298.15 K, x1 = 0.7031): 1.31 ± 0.017 mPa·s
- mass density (298.15 K, x1 = 0.7973): 996.74 ± 0.45 kg/m3
- speed of sound (298.15 K, x1 = 0.7973): 1166 ± 2 m/s
- viscosity (298.15 K, x1 = 0.7973): 1.291 ± 0.017 mPa·s
- mass density (298.15 K, x1 = 0.8979): 1020.84 ± 0.5 kg/m3
- speed of sound (298.15 K, x1 = 0.8979): 1153 ± 2 m/s
- viscosity (298.15 K, x1 = 0.8979): 1.225 ± 0.016 mPa·s
- mass density (298.15 K, x1 = 0.9515): 1033.11 ± 0.53 kg/m3
- speed of sound (298.15 K, x1 = 0.9515): 1143 ± 2 m/s
- viscosity (298.15 K, x1 = 0.9515): 1.172 ± 0.016 mPa·s
- mass density (298.15 K, x1 = 1): 1043.65 ± 0.56 kg/m3
- speed of sound (298.15 K, x1 = 1): 1132 ± 2 m/s
- viscosity (298.15 K, x1 = 1): 1.115 ± 0.015 mPa·s
- mass density (303.15 K, x1 = 0.0493): 794.78 ± 0.46 kg/m3
- speed of sound (303.15 K, x1 = 0.0493): 1133 ± 1 m/s
- viscosity (303.15 K, x1 = 0.0493): 0.989 ± 0.013 mPa·s
- mass density (303.15 K, x1 = 0.1004): 808.39 ± 0.44 kg/m3
- speed of sound (303.15 K, x1 = 0.1004): 1139 ± 1 m/s
- viscosity (303.15 K, x1 = 0.1004): 0.994 ± 0.013 mPa·s
- mass density (303.15 K, x1 = 0.1992): 835.58 ± 0.42 kg/m3
- speed of sound (303.15 K, x1 = 0.1992): 1148 ± 1 m/s
- viscosity (303.15 K, x1 = 0.1992): 1.023 ± 0.013 mPa·s
- mass density (303.15 K, x1 = 0.2971): 862.09 ± 0.4 kg/m3
- speed of sound (303.15 K, x1 = 0.2971): 1155 ± 1 m/s
- viscosity (303.15 K, x1 = 0.2971): 1.06 ± 0.014 mPa·s
- mass density (303.15 K, x1 = 0.3962): 888.6 ± 0.39 kg/m3
- speed of sound (303.15 K, x1 = 0.3962): 1160 ± 1 m/s
- viscosity (303.15 K, x1 = 0.3962): 1.108 ± 0.014 mPa·s
- mass density (303.15 K, x1 = 0.4961): 914.93 ± 0.4 kg/m3
- speed of sound (303.15 K, x1 = 0.4961): 1162 ± 2 m/s
- viscosity (303.15 K, x1 = 0.4961): 1.152 ± 0.015 mPa·s
- mass density (303.15 K, x1 = 0.5981): 941.42 ± 0.4 kg/m3
- speed of sound (303.15 K, x1 = 0.5981): 1160 ± 2 m/s
- viscosity (303.15 K, x1 = 0.5981): 1.183 ± 0.016 mPa·s
- mass density (303.15 K, x1 = 0.7031): 968.23 ± 0.42 kg/m3
- speed of sound (303.15 K, x1 = 0.7031): 1157 ± 2 m/s
- viscosity (303.15 K, x1 = 0.7031): 1.198 ± 0.016 mPa·s
- mass density (303.15 K, x1 = 0.7973): 991.29 ± 0.45 kg/m3
- speed of sound (303.15 K, x1 = 0.7973): 1149 ± 2 m/s
- viscosity (303.15 K, x1 = 0.7973): 1.181 ± 0.016 mPa·s
- mass density (303.15 K, x1 = 0.8979): 1015.28 ± 0.5 kg/m3
- speed of sound (303.15 K, x1 = 0.8979): 1136 ± 2 m/s
- viscosity (303.15 K, x1 = 0.8979): 1.126 ± 0.015 mPa·s
- mass density (303.15 K, x1 = 0.9515): 1027.5 ± 0.53 kg/m3
- speed of sound (303.15 K, x1 = 0.9515): 1126 ± 2 m/s
- viscosity (303.15 K, x1 = 0.9515): 1.084 ± 0.015 mPa·s
- mass density (303.15 K, x1 = 1): 1038 ± 0.56 kg/m3
- speed of sound (303.15 K, x1 = 1): 1115 ± 2 m/s
- viscosity (303.15 K, x1 = 1): 1.034 ± 0.014 mPa·s
